Here are results for 2 compounds from ChEMBL document CHEMBL1141677, “Synthesis and structure-antibacterial activity of triazolyl oxazolidinones containing long chain acyl moiety” (2008).

Values after ≈ are worked out from the molar mass of the structure shown. Bounds are passed on as bounds.

Common to all, as to assay type: functional
Assay [1] relates to Enterococcus. The experiment in a line: Antibacterial activity against vancomycin-sensitive Enterococcus after 18 hrs by agar dilution method.
The test system of assay [2] is Staphylococcus aureus. Briefly: Antibacterial activity against methicillin-resistant Staphylococcus aureus clinical isolate after 18 hrs by agar dilution method. The settings on record: for MIC: Staphylococcus aureus, 18 h. For orientation: In agar dilution the substance is mixed into plates at graded concentrations.
Assay [3] relates to Staphylococcus aureus. Briefly: Antibacterial activity against Staphylococcus aureus ATCC 25923 after 18 hrs by agar dilution method in presence of 50% human plasma. The settings on record: ATCC 25923, Plasma.
For assay [4], the system named is Enterococcus. The experiment in a line: Antibacterial activity against vancomycin-resistant Enterococcus after 18 hrs by agar dilution method.
The test system of assay [5] is Staphylococcus aureus. The experiment in a line: Antibacterial activity against Staphylococcus aureus ATCC 25923 after 18 hrs by agar dilution method. The settings on record: for MIC: Staphylococcus aureus, ATCC 25923, 18 h.
The subject of assay [6] is Streptococcus pneumoniae. The experiment in a line: Antibacterial activity against penicillin-resistant Streptococcus pneumoniae after 18 hrs by agar dilution method.
In assay [7] the test system is Staphylococcus. Briefly: Antibacterial activity against methicillin-resistant coagulase-negative Staphylococcus clinical isolate after 18 hrs by agar dilution method.
Assay [8] has as its system Haemophilus influenzae. The experiment in a line: Antibacterial activity against Haemophilus influenzae clinical isolate after 18 hrs by agar dilution method.
Assay [9] concerns Moraxella catarrhalis. Briefly: Antibacterial activity against Moraxella catarrhalis clinical isolate after 18 hrs by agar dilution method.
For assay [10], the system named is Escherichia coli. Briefly: Antibacterial activity against Escherichia coli ATCC 25922 after 18 hrs by agar dilution method. The settings on record: ATCC 25922, 18 h.
Assay [11] has as its system Staphylococcus. The experiment in a line: Antibacterial activity against methicillin-susceptible coagulase-negative Staphylococcus clinical isolate after 18 hrs by agar dilution method.
Assay [12] has as its system Staphylococcus aureus. The experiment in a line: Antibacterial activity against methicillin-susceptible Staphylococcus aureus clinical isolate after 18 hrs by agar dilution method.

With `CCC(=O)N1CCN(c2ccc(N3C[C@H](Cn4ccnn4)OC3=O)cc2F)CC1`, the MIC is 0.5 µg/mL (≈ 1.24 µM) in [1]; 1 µg/mL (≈ 2.48 µM) in assay [2]; 1 µg/mL in assay [3]; 1 µg/mL (≈ 2.48 µM) in [4]; 1 µg/mL (≈ 2.48 µM) in assay [5]; 1 µg/mL (≈ 2.48 µM) in assay [6]. In addition, the MIC in [7] was 1 µg/mL (≈ 2.48 µM); in assay [8], at least 8 µg/mL; in assay [9], at least 8 µg/mL; in [10], at least 8 µg/mL; in assay [11] it was 0.12 µg/mL (≈ 0.298 µM); in assay [12] it was 1 µg/mL (≈ 2.48 µM). Moreover, the “-logMIC” value in assay [2] and in assay [5] was 2.6 each time.

As to `CC(=O)N1CCN(c2ccc(N3C[C@H](Cn4ccnn4)OC3=O)cc2F)CC1`, the MIC in assay [1] is 0.5 µg/mL (≈ 1.29 µM); in assay [2], 0.25 µg/mL (≈ 0.644 µM); in assay [3], 1 µg/mL; in assay [4], 0.25 µg/mL (≈ 0.644 µM); in [5], 1 µg/mL (≈ 2.57 µM); in [6] it was 0.5 µg/mL (≈ 1.29 µM). Besides, the MIC in assay [7] is 0.25 µg/mL (≈ 0.644 µM); in [8] it was at least 8 µg/mL; in assay [9], at least 8 µg/mL; in assay [10], at least 8 µg/mL; in assay [11] it was 0.25 µg/mL (≈ 0.644 µM); in [12] it was 0.5 µg/mL (≈ 1.29 µM). The “-logMIC” value in assay [2] is on record as 3.19; in [5], 2.59.
